# According to patent publication US12252522B2, “Myokines for treating cell proliferative and metabolic diseases and disorders” (Northwestern University, priority 2019, dated 2025):
# B1: metrnl (protein, UniProt Q641Q3 46-311, looked up)
# Meteorin-like protein: QYSSDRCSWKGSGLTHEAHRKEVEQVYLRCAAGAVEWMYPTGALIVNLRPNTFSPARHLTVCIRSFTDSSGANIYLEKTGELRLLVPDGDGRPGRVQCFGLEQGGLFVEATPQQDIGRRTTGFQYELVRRHRASDLHELSAPCRPCSDTEVLLAVCTSDFAVRGSIQQVTHEPERQDSAIHLRVSRLYRQKSRVFEPVPEGDGHWQGRVRTLLECGVRPGHGDFLFTGHMHFGEARLGCAPRFKDFQRMYRDAQERGLNPCEVGTD
# notes: specific myokine
# Key:
# cancer cells = assay: live cell PWS (D) and transcriptional heterogeneity of cancer cells surviving chemotherapy; assay type: cell-based
# Excerpt: FIGS. 2A-2K. Four aspects of transcriptional heterogeneity regulation by chromatin D: (a) diversity (the relative dynamic range of expression; HT29 cells, 2445 genes), (b) intercellular heterogeneity, (c) intranetwork heterogeneity, and (d) amplification of changes in expression (ratio of changes in the expression rate of 800 significant genes induced by paclitaxel in A2780 ovarian cancer cells for high- vs. low-D cells). Predictions of a computational transcriptomics (multiscale analysis, MSA) model are shown as blue curves. (e) Chemotherapy leads to the survival of cancer cells with high D (middle-top panel; live cell PWS images of D; arrows: nuclei) and transcriptional (right-top) heterogeneity, while CPT agents (digoxin) decrease both (bottom). Left panels: MSA simulations of chromatin packing show a CPT-induced transition from a network to polymer-like packing. (f) Cells surviving chemotherapy treatment (paclitaxel (PAC); 48 h, A2780) have a larger global transcriptional space (single cell sequencing) while CPT (celecoxib) reduces it. (g) PWS images of HCT116 colon cancer cells after treatment with chemotherapy (oxaliplatin), CPT (celecoxib), and their combination. The addition of a CPT leads to >98% cancer cell death. […] Key: docetaxel (D), paclitaxel (P), oxaliplatin (0), digoxin (D), celecoxib (C), VPA (V), aspirin (A). […]
# [1] = test system: HCT116 colon cancer cells; assay: PWS imaging of HCT116 cells after chemotherapy, CPT and their combination; assay type: cell-based; settings: celecoxib (CPT) added to oxaliplatin
# [2] = test system: pancreatic ductal carcinoma PDX model; assay: in vivo validation of CPT on pancreatic ductal carcinoma PDX model; settings: co-treatment gemcitabine 10 mg/kg + 9-ING-41 40 mg/kg, i.p. 3x a week
# HT29 = assay: growth of HT29 cells treated with myostatin or metrnl and oxaliplatin; assay type: cell-based, human; settings: for growth of colorectal cancer cell line: HT29, alone; for effect in combination with oxaliplatin: HT29, combination with oxaliplatin
# Excerpt: FIGS. 6A-6C. Treatment of colon cancer cells lines with myokines and oxaliplatin. (a) HCT116 cells treated with myokines, oxaplatin, and combination of myokines and oxaplatin. (b) H29 cells treated with oxoplatin (ox), myostatin, and a combination of myostatin and oxaplatin. (c) H29 cells treated with oxoplatin (ox), metrnl, and a combination of metrnl and oxaplatin.
# Next, we treated colorectal cancer cell lines HCT116 and HT29 with a myokine fraction and the specific myokines myostain and metrnl either by themselves or in combination with oxaliplatin. […] (See FIG. 6).
Molecule,growth of colorectal cancer cell line (HT29),effect in combination with oxaliplatin (HT29),other results
C[C@H]1O[C@@H](O[C@H]2[C@@H](O)C[C@H](O[C@H]3[C@@H](O)C[C@H](O[C@H]4CC[C@@]5(C)[C@H](CC[C@@H]6[C@@H]5C[C@@H](O)[C@]5(C)[C@@H](C7=CC(=O)OC7)CC[C@]65O)C4)O[C@@H]3C)O[C@@H]2C)C[C@H](O)[C@@H]1O [digoxin],–,–,chromatin packing scaling D (cancer cells): decrease both
Cc1ccc(-c2cc(C(F)(F)F)nn2-c2ccc(S(N)(=O)=O)cc2)cc1 [celecoxib],–,–,cancer cell death [1]: > 98%
Cn1cc(C2=C(c3coc4ccc(F)cc34)C(=O)NC2=O)c2cc3c(cc21)OCO3 [9-ING-41],–,–,tumor volume relative to initial size [2]: < 4 % of the initial size
myostatin [myostain],reduced the growth,synergistic effect,–
B1,reduced the growth,synergistic effect,–
